“And” between values parts separate entries of the source, which are not always exact repeats. Equal entries are not always repeated.
Tested on: BDF1 mice, Adenocarcinoma 755 s.c., tumor weight T/C
Experiment: NCI In Vivo Anticancer Drug Screen. Data for tumor model Adenocarcinoma 755 (subcutaneous) in B6D2F1 (BDF1) mice
Settings: endpoint: mean tumor weight, higher = larger tumour
Summary of the method: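 Values express treated (T) relative to vehicle-dosed control (C) animals, based on survival or tumour size measured after compound treatment of mice bearing a transplanted tumour.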

[1] = dose: 12.5 mg/kg/injection, schedule: Q01DX011 (ip), vehicle: methylcellulose (MC)
[2] = dose: 25.0 mg/kg/injection, schedule: Q01DX011 (ip), vehicle: methylcellulose (MC)
[3] = dose: 30.0 mg/kg/injection, schedule: Q01DX011 (ip), vehicle: carboxymethylcellulose (CMC)
[4] = dose: 40.0 mg/kg/injection, schedule: Q01DX011 (ip), vehicle: carboxymethylcellulose (CMC)
[5] = dose: 12.5 mg/kg/injection, schedule: Q01DX011 (ip), vehicle: carboxymethylcellulose (CMC)
[6] = dose: 25.0 mg/kg/injection, schedule: Q01DX011 (ip), vehicle: carboxymethylcellulose (CMC)
[7] = dose: 50.0 mg/kg/injection, schedule: Q01DX011 (ip), vehicle: carboxymethylcellulose (CMC)
[8] = dose: 7.0 mg/kg/injection, schedule: Q01DX011 (ip), vehicle: carboxymethylcellulose (CMC)
[9] = dose: 14.0 mg/kg/injection, schedule: Q01DX011 (ip), vehicle: carboxymethylcellulose (CMC)
[10] = dose: 28.0 mg/kg/injection, schedule: Q01DX011 (ip), vehicle: carboxymethylcellulose (CMC)
[11] = dose: 15.0 mg/kg/injection, schedule: Q01DX011 (ip), vehicle: methylcellulose (MC)
[12] = dose: 31.0 mg/kg/injection, schedule: Q01DX011 (ip), vehicle: methylcellulose (MC)
[13] = dose: 250.0 mg/kg/injection, schedule: Q01DX011 (ip), vehicle: methylcellulose (MC)

## Cc1ccccc1-c1nc2c(N)nc(N)nc2nc1N
dose: 50.5 mg/kg/injection, schedule: Q01DX011 (ip), vehicle: carboxymethylcellulose (CMC)
  T/C: 83 % of control
dose: 57.0 mg/kg/injection, schedule: Q01DX011 (ip), vehicle: methylcellulose (MC)
  T/C: 54 % of control and 75 % of control
dose: 101.0 mg/kg/injection, schedule: Q01DX011 (ip), vehicle: carboxymethylcellulose (CMC)
  T/C: 75 % of control
dose: 113.0 mg/kg/injection, schedule: Q01DX011 (ip), vehicle: methylcellulose (MC)
  T/C: 48 % of control and 52 % of control
dose: 202.0 mg/kg/injection, schedule: Q01DX011 (ip), vehicle: carboxymethylcellulose (CMC)
  T/C: 68 % of control
dose: 225.0 mg/kg/injection, schedule: Q01DX011 (ip), vehicle: methylcellulose (MC)
  T/C: 82 % of control

## CNS(=O)(=O)c1ncnc2nc[nH]c12
dose: 3.1 mg/kg/injection, schedule: Q01DX011 (ip), vehicle: methylcellulose (MC)
  T/C: 77 % of control
dose: 6.2 mg/kg/injection, schedule: Q01DX011 (ip), vehicle: methylcellulose (MC)
  T/C: 36 % of control
dose: 8.0 mg/kg/injection, schedule: Q01DX011 (ip), vehicle: carboxymethylcellulose (CMC)
  T/C: 51 % of control
dose: 10.0 mg/kg/injection, schedule: Q01DX011 (ip), vehicle: carboxymethylcellulose (CMC)
  T/C: 20 % of control
[1]
  T/C: 44 % of control
dose: 15.0 mg/kg/injection, schedule: Q01DX011 (ip), vehicle: carboxymethylcellulose (CMC)
  T/C: 28 % of control
dose: 20.0 mg/kg/injection, schedule: Q01DX011 (ip), vehicle: carboxymethylcellulose (CMC)
  T/C: 2 % of control
[2]
  T/C: 5 % of control
[3]
  T/C: 16 % of control
[4]
  T/C: 2 % of control

## O=S(=O)(NCc1ccccc1)c1ncnc2nc[nH]c12
[5]
  T/C: 73 % of control
[6]
  T/C: 3 % of control
[7]
  T/C: 1 % of control

## Clc1nc(Cl)c2ncn(C3CCCO3)c2n1 (centres undefined)
dose: 33.0 mg/kg/injection, schedule: Q01DX011 (ip), vehicle: methylcellulose (MC)
  T/C: 65 % of control

## CS(=O)(=O)OCC(=O)NCCNC(=O)COS(C)(=O)=O
dose: 8.75 mg/kg/injection, schedule: Q01DX011 (ip), vehicle: carboxymethylcellulose (CMC)
  T/C: 107 % of control
dose: 17.5 mg/kg/injection, schedule: Q01DX011 (ip), vehicle: carboxymethylcellulose (CMC)
  T/C: 50 % of control
dose: 35.0 mg/kg/injection, schedule: Q01DX011 (ip), vehicle: carboxymethylcellulose (CMC)
  T/C: 49 % of control
[4]
  T/C: 61 % of control
dose: 60.0 mg/kg/injection, schedule: Q01DX011 (ip), vehicle: carboxymethylcellulose (CMC)
  T/C: 20 % of control
dose: 70.0 mg/kg/injection, schedule: Q01DX011 (ip), vehicle: carboxymethylcellulose (CMC)
  T/C: 12 % of control
dose: 95.0 mg/kg/injection, schedule: Q01DX011 (ip), vehicle: carboxymethylcellulose (CMC)
  T/C: 9 % of control
dose: 140.0 mg/kg/injection, schedule: Q01DX011 (ip), vehicle: carboxymethylcellulose (CMC)
  T/C: 2 % of control and 6 % of control
dose: 210.0 mg/kg/injection, schedule: Q01DX011 (ip), vehicle: carboxymethylcellulose (CMC)
  T/C: 7 % of control

## C1CN1P1(N2CC2)=NP(N2CC2)(N2CC2)=NP(N2CC2)(N2CC2)=NP(N2CC2)(N2CC2)=N1
dose: 0.4 mg/kg/injection, schedule: Q01DX011 (ip), vehicle: carboxymethylcellulose (CMC)
  T/C: 48 % of control
dose: 0.4 mg/kg/injection, schedule: Q02DX011 (ip), vehicle: carboxymethylcellulose (CMC)
  T/C: 96 % of control
dose: 0.8 mg/kg/injection, schedule: Q01DX011 (ip), vehicle: carboxymethylcellulose (CMC)
  T/C: 22 % of control
dose: 0.8 mg/kg/injection, schedule: Q02DX011 (ip), vehicle: carboxymethylcellulose (CMC)
  T/C: 54 % of control
dose: 1.5 mg/kg/injection, schedule: Q01DX011 (ip), vehicle: methylcellulose (MC)
  T/C: 45 % of control
dose: 1.5 mg/kg/injection, schedule: Q02DX006 (ip), vehicle: carboxymethylcellulose (CMC)
  T/C: 50 % of control
dose: 1.6 mg/kg/injection, schedule: Q01DX011 (ip), vehicle: carboxymethylcellulose (CMC)
  T/C: 6 % of control
dose: 1.6 mg/kg/injection, schedule: Q02DX011 (ip), vehicle: carboxymethylcellulose (CMC)
  T/C: 31 % of control
dose: 3.0 mg/kg/injection, schedule: Q01DX011 (ip), vehicle: methylcellulose (MC)
  T/C: 13 % of control
dose: 3.0 mg/kg/injection, schedule: Q02DX006 (ip), vehicle: carboxymethylcellulose (CMC)
  T/C: 10 % of control
dose: 3.2 mg/kg/injection, schedule: Q02DX011 (ip), vehicle: carboxymethylcellulose (CMC)
  T/C: 1 % of control
dose: 6.0 mg/kg/injection, schedule: Q02DX006 (ip), vehicle: carboxymethylcellulose (CMC)
  T/C: 1 % of control

## O=c1[nH]cnc2n[nH]nc12
dose: 125.0 mg/kg/injection, schedule: Q01DX011 (oral), vehicle: methylcellulose (MC)
  T/C: 55 % of control
dose: 250.0 mg/kg/injection, schedule: Q02DX006 (ip), vehicle: methylcellulose (MC)
  T/C: 5 % of control
dose: 250.0 mg/kg/injection, schedule: Q03DX004 (ip), vehicle: methylcellulose (MC)
  T/C: 21 % of control

## NNC(=O)NC(=O)NN
dose: 13.06 mg/kg/injection, schedule: Q01DX011 (ip), vehicle: carboxymethylcellulose (CMC)
  T/C: 117 % of control
dose: 26.13 mg/kg/injection, schedule: Q01DX011 (ip), vehicle: carboxymethylcellulose (CMC)
  T/C: 187 % of control
dose: 52.25 mg/kg/injection, schedule: Q01DX011 (ip), vehicle: carboxymethylcellulose (CMC)
  T/C: 74 % of control
dose: 104.5 mg/kg/injection, schedule: Q01DX011 (ip), vehicle: carboxymethylcellulose (CMC)
  T/C: 79 % of control
dose: 3845.0 micrograms/kg/injection, schedule: Q01DX011 (ip), vehicle: carboxymethylcellulose (CMC)
  T/C: 207 % of control
dose: 7690.0 micrograms/kg/injection, schedule: Q01DX011 (ip), vehicle: carboxymethylcellulose (CMC)
  T/C: 46 % of control

## CS(=O)(=O)OCCC(=O)NCNC(=O)CCOS(C)(=O)=O
[8]
  T/C: 77 % of control
[1]
  T/C: 79 % of control
[9]
  T/C: 42 % of control
[2]
  T/C: 39 % of control
[10]
  T/C: 4 % of control
dose: 28.0 mg/kg/injection, schedule: Q01DX011 (ip), vehicle: methylcellulose (MC)
  T/C: 5 % of control
dose: 50.0 mg/kg/injection, schedule: Q01DX011 (ip), vehicle: methylcellulose (MC)
  T/C: 3 % of control

## CC(C)COC(=O)C1(N)CCCC1
[6]
  T/C: 98 % of control
[7]
  T/C: 33 % of control
dose: 100.0 mg/kg/injection, schedule: Q01DX011 (ip), vehicle: carboxymethylcellulose (CMC)
  T/C: 12 % of control

## O=[N+]([O-])c1cc([N+](=O)[O-])c(NN(c2ccccc2)c2ccccc2)c([N+](=O)[O-])c1
dose: 25.0 mg/kg/injection, schedule: Q01DX011 (ip), vehicle: other
  T/C: 86 % of control

## c1nc(N2CC2)c2ncn(C3CCCCC3)c2n1
[5]
  T/C: 36 % of control
[7]
  T/C: 94 % of control

## CCOC(=O)Sc1ncnc2nc[nH]c12
dose: 0.21 mg/kg/injection, schedule: Q01DX011 (ip), vehicle: carboxymethylcellulose (CMC)
  T/C: 87 % of control
dose: 0.42 mg/kg/injection, schedule: Q01DX011 (ip), vehicle: carboxymethylcellulose (CMC)
  T/C: 41 % of control
dose: 0.85 mg/kg/injection, schedule: Q01DX011 (ip), vehicle: carboxymethylcellulose (CMC)
  T/C: 50 % of control
dose: 1.75 mg/kg/injection, schedule: Q01DX011 (ip), vehicle: carboxymethylcellulose (CMC)
  T/C: 3 % of control and 7 % of control and 12 % of control
dose: 3.5 mg/kg/injection, schedule: Q01DX011 (ip), vehicle: carboxymethylcellulose (CMC)
  T/C: 4 % of control
[8]
  T/C: 1 % of control and 5 % of control
[9]
  T/C: 2 % of control and 8 % of control
[10]
  T/C: 8 % of control
dose: 56.0 mg/kg/injection, schedule: Q01DX011 (ip), vehicle: carboxymethylcellulose (CMC)
  T/C: 8 % of control
dose: 112.0 mg/kg/injection, schedule: Q01DX011 (ip), vehicle: carboxymethylcellulose (CMC)
  T/C: 7 % of control

## CSc1ncc(Br)c(SCc2ccc(Cl)cc2Cl)n1
[11]
  T/C: 69 % of control
[12]
  T/C: 108 % of control
[13]
  T/C: 60 % of control

## CSc1ncc(Br)c(Nc2ccccc2C)n1
[11]
  T/C: 94 % of control
[12]
  T/C: 87 % of control
dose: 62.0 mg/kg/injection, schedule: Q01DX011 (ip), vehicle: methylcellulose (MC)
  T/C: 110 % of control
dose: 125.0 mg/kg/injection, schedule: Q01DX011 (ip), vehicle: methylcellulose (MC)
  T/C: 117 % of control
[13]
  T/C: 107 % of control

## CS(=O)(=O)c1nc(N)nc2nc[nH]c12
dose: 3.75 mg/kg/injection, schedule: Q01DX011 (ip), vehicle: carboxymethylcellulose (CMC)
  T/C: 81 % of control
dose: 7.5 mg/kg/injection, schedule: Q01DX011 (ip), vehicle: carboxymethylcellulose (CMC)
  T/C: 93 % of control and 81 % of control
[3]
  T/C: 5 % of control and 12 % of control

Source: PubChem BioAssay AID180 (DTP/NCI, 2004)
